Where “and” joins values, the source holds several entries; their conditions need not be identical. Identical values can stand only once.

Data set [1] can be described thus: 7T MRI T1/T2 assessment of liposome samples and controls. In kind it is physicochemical. The settings on record: for T1 (s) 1param / T1 (s) 3param / T1 (s) ImageJ / T2 (s) 1param / T2 (s) ImageJ / T2 (s) 3param: 7 T. Set-up: r1 (relaxometry value): unit not given here. From the text:
A series of MRI T1/T2 assessment studies have been carried out using a 7 T pre-clinical MRI scanner, with the assistance of Dr Po-Wah So (James Black Centre, KCL). The focus here has been to derive reliable r1/r2 relaxivities per molar Gd(III) for liposome produced using the [Gd]DOTA.DSA, [Gd]DOTA.Ahx.DSA and [Gd]DOTA.Aoc.DSA. This is reliant on both accurate measurements of the T1/T2 effects and also the exact gadolinium concentration in the prepared liposome suspensions. The extrusion and gel filtration processes make this latter hard to estimate, so Inductively Coupled Plasma Mass Spectrometry (ICP-MS) quantification is being assessed. This is turn required testing of suitable acid digestion conditions since the lipid-chelates may not be analysed directly. For both MRI and ICP-MS, commercial Gadovist is being used a positive control contrast agent of known Gd content. Assessment of temperature, buffer salt and liposome size effects on T1/T2 are also underway.
FIGS. 22 and 23 show Example T1 and T2 brightness traces for controls and liposome samples.
Comparison of liposomes containing different lipids as measured at 7T Magnet*.

Data set [2] is described as follows: Pharmacokinetics of topotecan in blood, quantification by HPLC. Type of data set: in vivo, Balb C Mice. The procedure: Balb C Mice were injected with IgFUS-TNPs encapsulating topotecan (8 mg/kg per mouse body weight) and drug pharmacokinetics monitored by blood sample analyses. Blood samples (50-100 μL) were collected at time intervals (2 min-4 h) and transferred into pre-weighed plastic vials containing heparin (5 uL). Cold methanol (100 μL) was added to each and the mixed samples stored over dry ice or at −20° C. until required. After thawing, each vial was weighed again and the difference used to estimate then original sample volume. […] Batches of 5 samples were analysed three times using an Agilent 1100 HPLC equipped with a cooled sample chamber (8-12° C.), a guarded Thermo Hypersil 30×4.6 mm, 5 μm C18 column, a Diode Array Detector (UV/vis absorbance) and an Agilent 1260 Infinity fluorescence detector. […] Detection was by absorbance (210/254/280 nm for proteins and other biologicals; 380 nm for topotecan; all using a bandwidth of 8 nm c.p. reference at 700 nm) and fluorescence (Ex 400 nm; Em 545 nm; PMT-gain 18). Injections were 5-20 μL depending on the sample concentrations and quantifications were calculated from the fluorescence peak areas after calibration (the detector response was effectively linear over the sensitive range). Topotecan could be reliably identified even at extremely low concentrations (10-20 ng/mL) by its intrinsic fluorescence and retention time (3.33±0.03 min; N=45). […]

Where [3] appears, read: 19.6 °C, conc >0.3 mM, dil not given.
Where [4] appears, read: 19.6 °C, dil 1 (liposomes 20 mg/mL; Gadovist 3.1 or 3 mM), Gadovist 3 mM.
Where [5] appears, read: 19.6 °C, dil 1 (liposomes 20 mg/mL; Gadovist 3.1 or 3 mM), Gadovist 3.1 mM.
Where [6] appears, read: 35.5 °C, conc >0.3 mM, dil not given.

Take `O=C([O-])CN1CCN(CC(=O)[O-])CCN([C@H](CO)[C@H](O)CO)CCN(CC(=O)[O-])CC1.[Gd+3]` (racemic) [Gadovist]: in data set [1] (setting [3]), the “T1 (s) 1param” value came out at 2.033 s, the “T1 (s) 3param” value was 2.061 s, the “T1 (s) ImageJ” value is 2.061 s and the “T2 (s) 1param” value is given as 0.206 s. Further, in data set [1] (setting [3]), the “T2 (s) ImageJ” value is reported as 0.1 s. In data set [1] (setting [4]), the “T1 (s) 1param” value was 0.09174 s, the “T1 (s) 3param” value was found to be 0.07712 s, the “T1 (s) ImageJ” value is 0.092 s and the “T2 (s) 1param” value is on record as 0.04691 s. In data set [1] (setting [4]), the “T2 (s) 3param” value amounted to 0.0488 s and the “T2 (s) ImageJ” value is given as 0.047 s. Also, in data set [1] (setting [5]), the “T1 (s) 1param” value stood at 0.072 s; the “T1 (s) 3param” value was determined as 0.084 s; the “T1 (s) ImageJ” value came out at 0.084 s; the “T2 (s) 1param” value is 0.0431 s and 0.0426 s. Further, in data set [1] (setting [5]), the “T2 (s) 3param” value was 0.0422 s and 0.0419 s; the “T2 (s) ImageJ” value was determined as 0.042 s. In addition, in data set [1] (setting [6]), the “T1 (s) 1param” value turned out to be 2.602 s, the “T1 (s) 3param” value is listed as 2.617 s, the “T1 (s) ImageJ” value is 2.606 s and the “T2 (s) 1param” value came out at 0.153 s. The “T2 (s) ImageJ” value in data set [1] (setting [6]) is given as 0.1 s. In data set [1] (39.5 °C, dil 1 (Gadovist 3 mM)), the “T1 (s) 1param” value is reported as 0.1297 s, the “T1 (s) 3param” value is reported as 0.1138 s, the “T1 (s) ImageJ” value is listed as 0.13 s and the “T2 (s) 1param” value came to 0.05335 s. In data set [1] (39.5 °C, dil 1 (Gadovist 3 mM)), the “T2 (s) 3param” value is given as 0.05578 s and the “T2 (s) ImageJ” value was found to be 0.053 s. For the same molecule, the “r1 (relaxometry value)” value in data set [1] (measured at 7T Magnet) is on record as 4.8.
In the case of `CC[C@@]1(O)C(=O)OCc2c1cc1n(c2=O)Cc2cc3c(CN(C)C)c(O)ccc3nc2-1` [free topotecan, topotecan], the “clearance of topotecan from the blood pool” value in data set [2] (i.v. tail vein, matched concentration, followed 4 h) is given as “cleared from the blood pool in mins”. Further, the fraction unbound in data set [2] (mouse, 'spiked' blood samples, previous results, read-out: loss of topotecan due to protein binding) fell in the range of 0.8 to 0.85.

These data come from patent US20180178043A1, “FOCUSTED ULTRASOUND HYPERTHERMIA” (KING'S COLLEGE LONDON, priority 2015, published 2018).
